Where “and” joins values, the source holds several entries; their conditions need not be identical. Equal values may be shown once.
Experiments:
STZ-treated Adn−/− mice = assay: OGTT and triglyceride tolerance test in STZ-treated adiponectin knockout mice; assay type: in vivo, mouse
Protocol: For oral glucose tolerance test (OGTT), mice were fasted for 4–6 h and subjected to an oral gavage of dextrose (2 mg/g body weight). Tail blood was collected at 0, 15, 30, 60, and 120 min and prepared for serum and assayed for glucose and insulin. For insulin tolerance test (ITT), insulin (0.75 U/kg Humulin R; Eli Lilly, Indianapolis, IN) was administered under fed condition. Serum glucose level was measured at 0, 15, 30, 60, and 90 min time point. Triglyceride tolerance test (TGTT) was initiated by oral gavage of 20% Intralipid (10 μl/g BDW, l141-100 ml, Sigma), and serum was collected at 0, 1, 1.5, 3, and 6 h for triglyceride assay. Glucose, insulin, and triacylglyceride levels were measured using an oxidase-peroxidase assay (Sigma P7119), insulin ELISA (Crystal Chem, Elk Grove village, IL, #15596018), and Infinity Triglycerides Reagent (Thermo Fisher Scientific TR22421).
Streptozotocin (STZ; Sigma S1030) was dissolved by 0.05 M citrate buffer (final; 20 mg/ml). Following 6 h fasting, mice received a single intraperitoneal injection of streptozotocin (200 mg/kg) to induce insulinopenic conditions.

INS-1 cells = assay: Ceramide and dihydroceramide levels in PA-stressed INS-1 cells by mass spectrometry; assay type: cell-based, rat; conditions: 24 h, PA 0.25 mM; for Ceramides 14:0 / Ceramides 16:0 / Ceramides 18:0 / Ceramides 18:1 / Ceramides 20:0 / Ceramides 22:0 / Ceramides 24:0 / Ceramides 24:1 / Ceramides 26:0 / Ceramides 26:1 / Dihydroceramides 16:0 / Dihydroceramides 18:0 / Dihydroceramides 20:0 / Dihydroceramides 22:0 / Dihydroceramides 24:0 / Dihydroceramides 24:1: INS1 cells, three replicates
Protocol: INS-1 cells were seeded at 2 × 10^6/well in a 6-well plate. Cells were treated as follows for 24 h: (i) Control: No FBS or PA (0.25 mM); (ii) Positive Control: 10% FBS + PA (0.25 mM); (iii) Adiponectin (10 nM) + PA (0.25 mM); (iv) AdipoRonPEG6HTL (10 nM) + PA (0.25 mM); (v) AdipoRonPEG6HTL (1 μM) + PA (0.25 mM); (vi) AdipoRonPEG5 (1 μM) + PA (0.25 mM); (vii) AdipoRonPEG5 (20 μM) + PA (0.25 mM). Thereafter, treatment was aspirated, and the cells were washed with cold PBS x 2, scraped off with 1–2 ml PBS, and spun down at 2,500 rpm for 5 min. The supernatant was aspirated, and the pallet was stored at […] for sphingolipid analysis.
Flash-frozen tissue samples (~40 mg) in a borosilicate glass tube were quenched with 2.0 ml of organic extraction solvent (isopropanol: ethyl acetate, 15:85; v:v) and homogenized with a mechanical tissue disruptor. Immediately afterward, 20 μl of organic internal standard solution was added (Ceramide/Sphingoid Internal Standard Mixture II diluted 1:10 in ethanol). The mixture was vortexed for 20 s and sonicated in ultrasonic bath for 40 min at 40°C. The organic extract was allowed to reach room temperature, and 1.5 ml of HPLC water was added and a two-phase liquid-liquid extraction was performed. The upper phase was transferred to a new clean tube, and the lower aqueous phase containing the protein pellet was re-extracted with additional 2.0 ml of organic extraction solvent. The organic phases were combined and dried under nitrogen stream at 40°C. Dried extracts were stored at –80°C until analysis. For analysis of ceramides and sphingoid base species, the dried residues were reconstituted in 200 μl of methanol. Sphingomyelins required a sample dilution of 1:50 in methanol prior to analysis. Serum sphingolipids were extracted using a similar methodology requiring 25 μl of serum.
In total, 5 μl of reconstituted samples was injected into an LC/MS/MS system for the analysis of ceramides and sphingoid bases, and 1 μl injection was required for the analysis of sphingomyelins. The system consisted of a Shimadzu LCMS-8050 triple-quadrupole mass spectrometer with the dual ion source operating in electrospray positive ionization mode. The mass spectrometer is coupled to a Shimadzu Nexera X2 UHPLC system equipped with three solvent delivery modules LC-30AD, three degassing units DGU-20A5R, an autosampler SIL-30ACMP, and a column oven CTO-20AC operating at 40°C (Shimadzu Scientific Instruments, Columbia, MD). Six sphingoid bases (d18:1 sphingosine, d18:1 sphingosine-1-phosphate, d18:1 deoxysphingosine, d18:0 sphinganine, d18:0 sphinganine-1-phosphate, d18:0 deoxysphinganine) and […] ceramide species and their metabolites (C16:0, C16:0 dihydroceramide, C16:0 glucosylceramide, C16:0 lactosylceramide, C16:0 sphingomyelin, C18:0, C18:0 dihydroceramide, C18:0 glucosylceramide, C18:0 sphingomyelin, C18:1, C20:0, C22:0, C22:0 glucosylceramide, C24:0, C24:0 dihydroceramide, C24:0 lactosylceramide, C24:0 sphingomyelin, C24:1, C24:1 dihydroceramide, C24:1 glucosylceramide, C24:1 sphingomyelin). Quantitative analysis of sphingolipids was achieved using selective reaction monitoring scan mode. Lipid separation was achieved by reverse phase LC on a 2.1 (i.d.) × 150 mm Ascentis Express C8, 2.7 micron (Supelco, Bellefonte, PA) column under gradient elution, using three different mobile phases: eluent A consisting of methanol/water/formic acid, 600/400/0.8, v/v/v with 5 mM ammonium formate, eluent B consisting of methanol/formic acid, 1,000/0.8, v/v with 5 mM ammonium formate, and eluent C consisting of CH3OH/CH2Cl2 350/650. The concentration of each metabolite was determined according to calibration curves using the peak-area ratio of analyte versus corresponding internal standard. Calibration curves were generated using serial dilutions of each target analyte.

wild-type mice = assay: Cold exposure (4°C): body temperature, scWAT histology, qPCR; assay type: in vivo, mouse
Protocol: In total, 5 mg/Kg of PBS and AdipoRonPEG5 were injected twice a day for 5 days at room temperature followed by housing in the cold chamber (4°C) for 7 days. Body temperature was measured at 0, 1, 2, 3, 4, and 5 h time point at the first day of cold exposure. In total, 5 mg/Kg of PBS and AdipoRonPEG5 were injected once a day for 7 days after cold exposure followed by harvesting tissues for qPCR analysis.

SMILES: O=C(COc1ccc(C(=O)c2ccccc2)cc1)NC1CCN(Cc2ccc(OCCOCCOCCOCCOCCO)cc2)CC1 [AdipoRonPEG5]
- blood TG levels in triglyceride tolerance test (STZ-treated Adn−/− mice): not altered
- glucose levels in OGTT (STZ-treated Adn−/− mice): improved the glucose levels
- C22:0 and C24:0 ceramides (INS-1 cells; 1 μM): significantly reduced
- overall dihydroceramide and ceramides levels (INS-1 cells): markedly lowered
- Ceramides 14:0 (INS-1 cells; 1 μM): 11.37 pg/mg and 8.34 pg/mg and 8.44 pg/mg
- Ceramides 16:0 (INS-1 cells; 1 μM): 132.31 pg/mg and 60.25 pg/mg and 97.74 pg/mg
- Ceramides 18:0 (INS-1 cells; 1 μM): 285.84 pg/mg and 108.83 pg/mg and 172.70 pg/mg
- Ceramides 18:1 (INS-1 cells; 1 μM): 2.60 pg/mg and 1.60 pg/mg and 2.34 pg/mg
- Ceramides 20:0 (INS-1 cells; 1 μM): 81.47 pg/mg and 94.91 pg/mg and 71.51 pg/mg
- Ceramides 22:0 (INS-1 cells; 1 μM): 502.13 pg/mg and 501.01 pg/mg and 352.24 pg/mg
- Ceramides 24:0 (INS-1 cells; 1 μM): 985.21 pg/mg and 942.22 pg/mg and 715.38 pg/mg
- Ceramides 24:1 (INS-1 cells; 1 μM): 415.25 pg/mg and 405.60 pg/mg and 306.31 pg/mg
- Ceramides 26:0 (INS-1 cells; 1 μM): 13.63 pg/mg and 11.39 pg/mg and 10.09 pg/mg
- Ceramides 26:1 (INS-1 cells; 1 μM): 4.83 pg/mg and 4.31 pg/mg and 3.39 pg/mg
- Dihydroceramides 16:0 (INS-1 cells; 1 μM): 20.35 pg/mg and 15.35 pg/mg and 22.55 pg/mg
- Dihydroceramides 18:0 (INS-1 cells; 1 μM): 114.43 pg/mg and 74.94 pg/mg and 73.63 pg/mg
- Dihydroceramides 20:0 (INS-1 cells; 1 μM): 37.94 pg/mg and 40.41 pg/mg and 33.11 pg/mg
- Dihydroceramides 22:0 (INS-1 cells; 1 μM): 124.23 pg/mg and 124.34 pg/mg and 96.61 pg/mg
- Dihydroceramides 24:0 (INS-1 cells; 1 μM): 149.67 pg/mg and 168.38 pg/mg and 120.04 pg/mg
- Dihydroceramides 24:1 (INS-1 cells; 1 μM): 47.95 pg/mg and 51.21 pg/mg and 34.41 pg/mg
- Ceramides 14:0 (INS-1 cells; 20 μM): 13.47 pg/mg and 7.61 pg/mg and 10.59 pg/mg
- Ceramides 16:0 (INS-1 cells; 20 μM): 264.29 pg/mg and 93.09 pg/mg and 72.49 pg/mg
- Ceramides 18:0 (INS-1 cells; 20 μM): 442.08 pg/mg and 170.74 pg/mg and 152.01 pg/mg
- Ceramides 18:1 (INS-1 cells; 20 μM): 3.76 pg/mg and 2.21 pg/mg and 1.71 pg/mg
- Ceramides 20:0 (INS-1 cells; 20 μM): 86.19 pg/mg and 75.99 pg/mg and 78.87 pg/mg
- Ceramides 22:0 (INS-1 cells; 20 μM): 345.37 pg/mg and 441.95 pg/mg and 372.15 pg/mg
- Ceramides 24:0 (INS-1 cells; 20 μM): 827.24 pg/mg and 951.19 pg/mg and 835.47 pg/mg
- Ceramides 24:1 (INS-1 cells; 20 μM): 377.12 pg/mg and 400.62 pg/mg and 388.65 pg/mg
- Ceramides 26:0 (INS-1 cells; 20 μM): 9.40 pg/mg and 10.66 pg/mg and 9.87 pg/mg
- Ceramides 26:1 (INS-1 cells; 20 μM): 3.59 pg/mg and 4.43 pg/mg and 3.78 pg/mg
- Dihydroceramides 16:0 (INS-1 cells; 20 μM): 24.81 pg/mg and 12.98 pg/mg and 10.56 pg/mg
- Dihydroceramides 18:0 (INS-1 cells; 20 μM): 94.22 pg/mg and 32.83 pg/mg and 48.23 pg/mg
- Dihydroceramides 20:0 (INS-1 cells; 20 μM): 22.59 pg/mg and 15.72 pg/mg and 18.47 pg/mg
- Dihydroceramides 22:0 (INS-1 cells; 20 μM): 48.91 pg/mg and 46.89 pg/mg and 48.41 pg/mg
- Dihydroceramides 24:0 (INS-1 cells; 20 μM): 58.93 pg/mg and 62.29 pg/mg and 62.49 pg/mg
- Dihydroceramides 24:1 (INS-1 cells; 20 μM): 21.44 pg/mg and 23.79 pg/mg and 23.03 pg/mg
- subcutaneous adipose tissue histology after cold exposure (wild-type mice; 5 mg/kg, 4°C): resembling beige adipocytes
- body temperature after acute cold exposure (wild-type mice; 5 mg/kg, 5 days treatment, 4°C): significantly higher body temperature
- T-cadherin (CDH13) expression (wild-type mice; scWAT and BAT after cold exposure, qPCR): upregulated expression

Reference: paper PMC8327158, “PEGylated AdipoRon derivatives improve glucose and lipid metabolism under insulinopenic and high-fat diet conditions” (Journal of Lipid Research, 2021)
